According to PMC3871185 (ACS medicinal chemistry letters, 2013):
≈ marks a conversion by molar mass, not a printed value. Entries after “also recorded” stand apart in the source; their conditions may differ.

Legend:
BpMetAP1 = BpMetAP1 (Burkholderia pseudomallei, UniProt Q63T11)
hMetAP1 = conditions: read-out: hMetAP1 IC50; cited from earlier work
hMetAP2 = conditions: cited from earlier work; for IC50: read-out: hMetAP2 IC50
[1] = tested on: Burkholderia thailandensis
[2] = tested on: clinical B. pseudomallei isolates; conditions: cited from earlier work
[3] = tested on: Burkholderia thailandensis; conditions: cited from earlier work
B. pseudomallei = conditions: cited from earlier work
B. pseudomallei 1026b = type: cell-based, Burkholderia pseudomallei
[4] = tested on: Burkholderia thailandensis; test: microbe, parasite or virus in culture; conditions: read-out: minimum inhibitory concentration (MIC)
[5] = tested on: B. pseudomallei strain Bp340; type: cell-based, Burkholderia pseudomallei

Chain of BpMetAP1 (Q63T11 1-271): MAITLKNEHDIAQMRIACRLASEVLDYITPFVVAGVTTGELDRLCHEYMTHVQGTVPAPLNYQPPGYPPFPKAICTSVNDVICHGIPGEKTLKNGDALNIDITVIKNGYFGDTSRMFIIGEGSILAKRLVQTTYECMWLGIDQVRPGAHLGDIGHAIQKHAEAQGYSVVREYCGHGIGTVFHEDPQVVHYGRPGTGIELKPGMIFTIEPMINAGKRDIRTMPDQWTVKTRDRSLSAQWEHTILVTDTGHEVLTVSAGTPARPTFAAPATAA

| Compound | BpMetAP1 inhibition potency (in words) (BpMetAP1) | growth inhibition of B. thailandensis (in words) [1] | other results |
| --- | --- | --- | --- |
| Cc1ccc2cccc(O)c2n1 [compound 2, reference compound] | inactive | inhibited cell growth | IC50 (hMetAP1): > 15 µM; IC50 (hMetAP2): > 15 µM |
| Nc1nnc(SCc2ccc(F)cc2)[nH]1 [compound 17] | low micromolar range | – | – |
| Oc1c(CN2CCCCC2)cc(Cl)c2cccnc12 [compound 5] | Met-AP inhibition | – | – |
| CC(C)(O/N=C(\C(=O)N[C@@H]1C(=O)N2C(C(=O)[O-])=C(C[n+]3ccccc3)CS[C@H]12)c1csc(N)n1)C(=O)O [ceftazidime] | – | – | MIC [2]: 1 to 6 µg/mL |
| Nc1nnc(SCc2ccc(Cl)cc2Cl)[nH]1 [compound 18] | low micromolar range | – | – |
| O=C(O)c1ccc(-c2ccccc2Cl)o1 [compound 22, reference compound] | – | essentially no ability to inhibit bacterial growth | – |
| O=C(O)c1cc(Br)ccc1NS(=O)(=O)c1ccc(Cl)cc1 [compound 25] | – | nor the sulfonamide (24 and 25) derivatives demonstrated significant growth inhibition | – |
| CN(C)Cc1cc([N+](=O)[O-])c2cccnc2c1O [compound 11] | – | potent growth inhibitors; also recorded: inhibition of cell growth | – |
| Cc1ccc(CSc2nnc(N)[nH]2)cc1 [compound 16] | low micromolar range | – | – |
| CN1CCN(Cc2cc([N+](=O)[O-])c3cccnc3c2O)CC1 [compound 15] | – | potent growth inhibitors; also recorded: inhibition of cell growth; also recorded: nearly complete cell growth inhibition | – |
| O=C(O)c1ccc(-c2cc(Cl)ccc2Cl)o1 [compound 23, reference compound] | – | essentially no ability to inhibit bacterial growth | – |
| O=[N+]([O-])c1cc(CN2CCCC2)c(O)c2ncccc12 [compound 12] | – | potent growth inhibitors; also recorded: inhibition of cell growth | – |
| O=[N+]([O-])c1cc(CN2CCSCC2)c(O)c2ncccc12 [compound 14] | decreased potency | – | – |
| O=S(=O)(O)c1ccc(O)c2ncccc12 [compound 1] | – | – | IC50 (hMetAP1): > 15 µM; IC50 (hMetAP2): > 15 µM |
| NC[C@H]1O[C@H](O[C@H]2[C@H](O)[C@@H](O[C@H]3O[C@H](CO)[C@@H](O)[C@H](N)[C@H]3O)[C@H](N)C[C@@H]2N)[C@H](O)[C@@H](O)[C@@H]1O [Km, kanamycin] | – | – | killing of B. thailandensis [3]: complete killing; killing of B. pseudomallei (B. pseudomallei): complete killing |
| O=[N+]([O-])c1ccc(O)c2ncccc12 [compound 9, 5-nitro-8-hydroxyquinoline] | Met-AP inhibition | potent growth inhibitors; also recorded: inhibition of cell growth | inhibition of B. pseudomallei 1026b (B. pseudomallei 1026b): no difference in inhibition compared to Bp340; IC50 (hMetAP1): > 15 µM; MIC [4]: ~6 µg/mL (≈ 31.6 µM); growth inhibition of B. pseudomallei Bp340 [5]: complete growth inhibition; activity against human MetAP2 in vitro (hMetAP2): nanomolar range |
| Oc1c(CN2CCSCC2)cc(Cl)c2cccnc12 [compound 7] | – | inhibited cell growth | – |
| O=[N+]([O-])c1cc(CN2CCCCC2)c(O)c2ncccc12 [compound 10] | decreased potency | inactive | – |
| O=[N+]([O-])c1cc(CN2CCOCC2)c(O)c2ncccc12 [compound 13] | decreased potency | – | – |
| Oc1cccc2cccnc12 [compound 3, reference compound] | – | inhibited cell growth | IC50 (hMetAP1): > 15 µM |
